This is an account of results in patent US20210008206A1, “ADENOSINE PATHWAY INHIBITORS FOR CANCER TREATMENT” (Corvus Pharmaceuticals, Inc., priority 2017, published 2021).

For experiment [1], the system named is patients with advanced cancers. Briefly: Phase 1/1b clinical trial, tumor response by baseline biomarker level. Particulars: for Objective response rate / Disease control rate: 100 mg orally twice a day, 28 days. In kind it is in vivo, human. As to the method: FIG. 3 is a graph showing tumor response to treatment with the compound of Formula (III) in patients expressing low levels of adenosine A2A receptors and patients expressing high levels of adenosine A2A receptors. RNA was extracted from pre-treatment tumor samples, and Nanostring was performed to arrive at the values described herein. The disease control rate was 0 of 11 patients who expressed low levels of adenosine A2A receptors, and was 9 of 26 patients who expressed high levels of adenosine A2A receptors. The objective response rate was 0 of II patients who expressed low levels of adenosine A2A receptors, and 1 of 26 patients who expressed high levels of adenosine A2A receptors.
FIG. 4 is a graph showing tumor response to treatment with the compound of Formula (III) in patients expressing low levels of CD73 and patients expressing high levels of CD73. RNA was extracted from pre-treatment tumor samples, and Nanostring was performed to arrive at the values described herein. The disease control rate was 1 of 9 patients who expressed low levels of CD73, and was 8 of 28 patients who expressed high levels of CD73. The objective response rate was 0 of 9 patients who expressed low levels of CD73, and was 1 of 28 patients who expressed high levels of CD73.
FIG. 5 is a graph showing tumor response to treatment with the compound of Formula (III) in patients expressing low levels of adenosine A2A receptors and/or CD73 and patients expressing high levels of both adenosine A2A receptors and CD73. RNA was extracted from pre-treatment tumor samples, and Nanostring was performed to arrive at the values described herein. The disease control rate was 8 of 21 patients who expressed low levels of adenosine A2A receptors and/or CD73, and was 1 of 16 patients who expressed high levels of both adenosine A2A receptors and CD73. The objective response rate was 1 of 21 patients who expressed low levels of adenosine A2A receptors and/or CD73, and was 0 of 16 patients who expressed high levels of both adenosine A2A receptors and CD73.
FIG. 6 is a graph showing tumor response to treatment with the compound of Formula (III) in patients expressing low levels of PD-L1 mRNA and patients expressing high levels of PD-L1 mRNA. RNA was extracted from pre-treatment tumor samples, and Nanostring was performed to arrive at the values described herein. The disease control rate was 3 of 17 patients who expressed low levels of PD-L1 mRNA, and was 6 of 20 patients who expressed high levels of PD-L1 mRNA. The objective response rate was 0 of 17 patients who expressed low levels of PD-L1 mRNA, and was 1 of 20 patients who expressed high levels of PD-L1 mRNA.
FIG. 7 is a graph showing tumor response to treatment with the compound of Formula (III) in patients having low levels of PD-L1 and patients having high levels of PD-L1. PD-L1 staining on immune cells was determined by immunohistochemistry using the SP142 antibody that detects PD-L1. The disease control rate was 7 of 24 patients who expressed low levels of PD-L1, and was 2 of 13 patients who expressed high levels of PD-L1. The objective response rate was 0 of 24 patients who expressed low levels of PD-L1, and was 1 of 13 patients who expressed high levels of PD-L1.
“Objective response rate” refers to the patients that had greater than 30% reduction in the sum of the longest dimensions of their assessed target tumor lesions.
The compound of Formula (III) is being investigated in an ongoing Phase 1/1b clinical trial in patients with advanced cancers (NCT02655822 at www.clinicaltrials.gov). Biomarker investigations were conducted to explore immune modulation in serial tumor biopsies and peripheral blood as well associations between adenosine pathway genes and clinical activity. […]

In experiment [2] the test system is tumor biopsies. The experiment in a line: On-treatment vs pre-treatment tumor biopsies, IHC and Nanostring gene expression. The class given is in vivo, human. Particulars: on-treatment biopsies compared to pre-treatment biopsies. An excerpt: FIGS. 8A-8H show log2-fold changes in immunohistochemistry and gene expression (i.e., mRNA) by Nanostring on on-treatment biopsies compared to pre-treatment biopsies and identifies pharmacodynamics changes that are observed in CD73-high tumors treated with a compound of Formula (III). FIG. 8A compares CD8 infiltration, measured by IHC, in patients expressing low levels and high levels of CD73 (where the p=0.005) after treatment with the compound of Formula (III). FIG. 8B compares PD-L1 inflammation infiltration, measured by IHC, in patients expressing low levels and high levels of CD73 (p=0.15) after treatment with the compound of Formula (III). FIG. 8C compares CXCL9 (chemokine C-X-C motif ligand 9) gene expression in patients expressing low levels and high levels of CD73 (p=0.02) after treatment with the compound of Formula (III). […]
The patients were orally administered the compound of Formula (III) at a dose of 100 mg, twice a day, for twenty-eight days. Tumor biopsies and blood samples were analyzed from patients with renal cell carcinoma, non-small cell lung cancer, triple negative breast cancer, microsatellite instable colorectal cancer treated with the compound of Formula (III). Paired tumor biopsies were analyzed: gene expression profiles (Nanostring), CD8, PD-L1 and CD73 (IHC). […]

The test system of experiment [3] is T cell function. The experiment in a line: Suppression of T cell function by adenosine. The class given is cell-based.
The nature of experiment [4]: Preclinical models.
The mark [5] stands for this setting: patients expressing high levels of both adenosine A2A receptors and CD73.
Where [6] appears, read: patients expressing low levels of adenosine A2A receptors and/or CD73.

On to `Cc1ccc(-c2nc(N)nc3c2nnn3Cc2cccc(COC3CCOC3)n2)o1` (centres unmarked) [compound of Formula (III)], for which the Objective response rate in experiment [1] (patients expressing high levels of CD73) is 1 of 28; in experiment [1] (patients expressing high levels of PD-L1 mRNA) it was 1 of 20; in experiment [1] (patients expressing high levels of adenosine A2A receptors) it was 1 of 26; in experiment [1] (setting [5]), 0 of 16; in experiment [1] (patients expressing low levels of CD73), 0 of 9; in experiment [1] (patients expressing low levels of PD-L1 mRNA) it was 0 of 17. In addition, the Objective response rate in experiment [1] (setting [6]) is 1 of 21; in experiment [1] (patients with high levels of PD-L1 (IHC, SP142)), 1 of 13; in experiment [1] (patients with low levels of PD-L1 (IHC, SP142)), 0 of 24. Further, the Disease control rate in experiment [1] (patients expressing high levels of CD73 (Nanostring)) is reported as 8 of 28; in experiment [1] (patients expressing high levels of PD-L1 mRNA (Nanostring)), 6 of 20; in experiment [1] (patients expressing high levels of adenosine A2A receptors (Nanostring, pre-treatment tumor)) it was 9 of 26; in experiment [1] (setting [5]), 1 of 16; in experiment [1] (patients expressing low levels of CD73 (Nanostring)), 1 of 9; in experiment [1] (patients expressing low levels of PD-L1 mRNA (Nanostring)), 3 of 17. The Disease control rate in experiment [1] (patients expressing low levels of adenosine A2A receptors (Nanostring, pre-treatment tumor)) is 0 of 11; in experiment [1] (setting [6]), 8 of 21; in experiment [1] (patients with high levels of PD-L1 (IHC on immune cells, SP142 antibody, ≥1%)), 2 of 13; in experiment [1] (patients with low levels of PD-L1 (IHC on immune cells, SP142 antibody, <1%)), 7 of 24. Further, the Tumor regression entry in experiment [1] (patients with elevated expression of adenosine A2A receptor genes, CD73 and PD-L1 in baseline tumor samples compared to patients having low expression) is on record as “significant tumor regression”. The “Pharmacodynamics changes in IHC and gene expression” value in experiment [2] is given as “observed only in CD73-high tumors”. Moreover, the “Effect on suppression of T cell function by adenosine” value in experiment [3] is “inhibits suppression of T cell function by adenosine”. In addition, the “Activity in preclinical models” value in experiment [4] was “active in multiple preclinical models”.
